Tested on: human iPS cell Toe strain
Assay: Effect to promote differentiation from human iPS cells into insulin-producing cells (insulin-positive cell rate, Reference Example 1)
Format: cell-based
Conditions: 10 μM; average of 30 cases; untreated control 4.9%
Excerpt: The evaluation system of the effect (efficacy) to promote differentiation from human iPS cells into insulin-producing cells was constructed with reference to known information (Non Patent Document 6). Further, the medium used in each differentiation stage was also produced with reference to known information (differentiation media A to E (Media A to E) described in Non Patent Document 6 were used respectively for stages 1 to 5; however, a medium free from GLP-1 receptor agonist and nicotinamide was used as differentiation medium E).
In order to evaluate the efficacy of each compound, the compound of Synthesis Example 1 was used as a positive control, and dimethylsulfoxide (DMSO) (SIGMA, D2650) with a final concentration of 0.1% was used as a control untreated with compounds. Each compound was dissolved in DMSO, and two types of compound solutions were prepared so as to have final concentrations of 2 μM and 10 μM after the compound was added to the medium. In the following evaluation, the compound solutions were added to the medium to 0.1% that is the final concentration of DMSO.
First, induction from human iPS cell Toe strain (National Institutes of Biomedical Innovation, Health and Nutrition) into cells on day 7 of culture (2 days after replacement with differentiation medium C (cells in the differentiation process from FOXA2-positive primitive gut tube cells into PDX1-positive pancreatic progenitor cells)) was performed according to the method of Non Patent Document 6 for “inducing differentiation from human iPS cells into pancreatic β cells”, and the cells were collected and thereafter stored in liquid nitrogen using Bambanker (NIPPON Genetics Co, Ltd.) at 1×10^7 cells/mL/tube, to produce a cell stock for evaluation. The cell stock was dissolved at the start of the evaluation of efficacy, suspended in differentiation medium C for stage 3 (DMEM high glucose (Life technologies, 11965092), 0.25 μM SANT-1, 0.1 μM LDN193189 (Stemgent, 04-0074), 10 μM SB431542, 2 μM Retinoic acid (Stemgent, 04-0021), 1% B27 serum free supplement (Life technologies, 17504044) and thereafter seeded in a 96-well plate (Corning, #3340) coated with Synthemax II (Corning, #5656) at 1×10^5 cells/well. After culturing for 2 days, the medium was removed, and new differentiation medium C for stage 3 with the compound or only DMSO added was added thereto at 100 μL/well. After culturing for 2 days, the medium was removed, and new differentiation medium D for stage 4 (DMEM high glucose, 0.1 μM LDN193189, 5 μM TGF-β type I receptor kinase inhibitor II (Calbiochem 616452), 0.3 μM (−)-indolactam V (Enzo life science ALX-420-011-C300), 1% B27 serum free supplement) with the compound or only DMSO added was added thereto at 100 μL/well. After culturing for 2 to 3 days, the medium was removed, and new differentiation medium E for stage 5 (GLP-1 receptor agonist and nicotinamide-free; Knockout […] (Life technologies, 12660012), 1% B27 serum free supplement) with the compound or only DMSO added was added thereto at 200 μL/well. After culturing for 2 days, the medium was removed, and a 4% paraformaldehyde phosphorus acid buffer (Wako, 163-20145) was added thereto at 150 μL/well and left standing for 30 to 60 minutes at room temperature to fix the cells. A phosphorus acid buffer (PBS) (Takara, T9181) containing 1% Triton X-100 (Sigma, T8787) was left standing for 15 minutes at room temperature, then washed with PBS-T (Takara, T9183), and was blocked for 1 hour using 20% Blocking One (Nacalai tesque, Tokyo, Japan) diluted with PBS-T at room temperature. After the removal of Blocking One, guinea pig anti-insulin antibody (Abcam, ab7842) diluted 200-fold with 20% Blocking One was added thereto at 50 μL/well, followed by standing at 4° C. overnight. […]

SMILES: O=C1CCC(C(=O)Nc2ncc(-c3ccccc3)s2)n2cccc21 (stereo not shown) [Synthesis Example 1, 8-Oxo-N-(5-phenylthiazol-2-yl)-6,7-dihydro-5H-indolizine-5-carboxamide]
- average insulin-positive cell rate: 13%
